Reference: patent publication US8329863B2, “Gonadotropin releasing hormone antagonists” (Oakwood Laboratories, LLC, priority 2004, dated 2012)
Where two headings read alike, the source gives them in different places. Square brackets hold non-standard residues; d marks the D form. Peptide text beside a SMILES is read from it. * marks the point of attachment. dPhe(4-Cl) = N[C@H](Cc1ccc(Cl)cc1)C(=O)O; Nicotinoyl(6-NH2) = Nc1ccc(C(=O)*)cn1; d1Nal = N[C@H](Cc1cccc2ccccc12)C(=O)O; Lys(iPr) = CC(C)NCCCC[C@H](N)C(=O)O; d3Pal = N[C@H](Cc1cccnc1)C(=O)O; Picolinoyl = O=C(c1ccccn1)*; dOrn = NCCC[C@@H](N)C(=O)O

What was measured:
[1] = Water solubility at room temperature; format: physicochemical
Protocol: Solubility of the novel GnRH antagonist was compared with that of orntide acetate at room temperature. In this experiment, 50 mg of the novel GnRH antagonist was weighed into a small glass container and 2 mL of purified water was added to it. […] An additional 3 mL of water was added, the solution mixed, and the pH was determined: 5.4. The same procedure was used to test the solubility of orntide acetate (known in the art as ornirelix).
Separately, another 50 mg aliquot was weighed out and 1 ml of water was added. This also dissolved. This is 50 mg/mL in concentration, which is 10 times what is possible to dissolve with orntide acetate.

testosterone = assay: Testosterone suppression in vivo in the standard experimental rat model; design: species or system male Sprague Dawley rats; details: subcutaneous
Protocol: Briefly, male Sprague Dawley rats weighing approximately 300 g were purchased from Harlan (Indianapolis, Ind.) and used immediately after the quarantine period required by a University of Kentucky Animal Research Facility approved protocol.
The evaluation was conducted in two groups of rats. Group 1 included 6 rats to be administered with the novel GnRH antagonist. The other group was a control group consisting of 2 rats. The novel GnRH antagonist was administered subcutaneously (scapulae). Blood samples (1 mL) for testosterone level determinations were collected from the tail vein at 0, 1, 3, 6, 12, 24, and 48 hours. Serum was extracted by centrifugation at 2000 rpm for 15 min and stored at −20 C until determination of testosterone/LH levels. Rat plasma testosterone was determined using Active™ Testosterone RIA DSL-4000 kits purchased from Diagnostic Systems, Inc. Webster, Tex. To effect a sufficient washout period the doses were administered at weekly intervals.
A total of six rats were used for each dose tested. In the first week, each rat received a single dose of 15 μg. In the second week, the dose increased to 30 μg. Next, in the third week, each rat received a single dose of 60 μg. Table 2 is the control rat group with a total of 2 rats that received only vehicle.

Compound | solubility ([1]; aqueous media, even at a pH lower than 5, read-out: solubility in aqueous media) [µg/mL] | gelling in aqueous media ([1]; at concentrations less than 5 mg/mL) | solubility ([1]; water, pH 5, at a pH of 5, read-out: water solubility) [µg/mL] | time to dissolve ([1]; 50 mg in 2 mL purified water, relatively gentle mixing, room temperature) | pH of the solution ([1]; 50 mg in 5 mL water (10 mg/mL)) | testosterone level reached after the castration period (testosterone; 15 μg/rat, after about 12 hours) [ng/mL] | duration of chemical castration of testosterone (≦0.5 ng/ml) (testosterone; 15 μg/rat, single dose) | serum testosterone level at 6 hours (testosterone; 15 μg/rat, single dose, week 1, mean of 6 rats) [ng/mL] | testosterone level by 24 hours (testosterone; 30 μg/rat, single dose) | duration of testosterone suppression (testosterone; 30 μg/rat, single dose, week 2)
CC(=O)N[C@H](Cc1cccc2ccccc12)C(=O)N[C@H](Cc1ccc(Cl)cc1)C(=O)N[C@H](Cc1cccnc1)C(=O)N[C@@H](CO)C(=O)N[C@@H](CCCCNC(=O)c1ccccn1)C(=O)N[C@H](CCCNC(=O)c1ccc(N)nc1)C(=O)N[C@@H](CC(C)C)C(=O)N[C@@H](CCCCNC(C)C)C(=O)N1CCC[C@H]1C(=O)N[C@H](C)C(N)=O [orntide acetate, DNal^1, DpCIPhe^2, D3Pal^3 Ser^4, PicLys^5, D(6ANic)Orn^6, Leu^7, IprLys^8, Pro^9, DAla^10-NH2] (Ac-[d1Nal][dPhe(4-Cl)][d3Pal]SK(Picolinoyl)[dOrn](Nicotinoyl(6-NH2))L[Lys(iPr)]P[dA]-NH2; N-terminus and C-terminus assumed) | < 5000 | tends to gel even at that low concentration | < 5000 | – | – | – | – | – | – | –
AcDNal^1, DpCIPhe^2, D3Pal^3 Ser^4, NicLys^5, D(6ANic)Orn^6, Leu^7, IprLys^8, Pro^9, DAla^10NH2 [novel GnRH antagonist] | – | – | – | less than 30 seconds | 5.4 | 1.5 | about 12 hours | 0.2 | greater than 0.5 ng/mL | at least 12 hours
